In experiment [1] the test system is E. coli HMS1. The experiment can be described thus: MIC, Agar (Mueller Hinton) Dilution Method. It counts as cell-based. To be noted: Escherichia coli. An outline of the steps:
(§1)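 Compounds are incorporated into Mueller Hinton agar by dilution and tested against Gram-positive and Gram-negative bacteria; the lowest inhibitory concentration is reported in micrograms/ml.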

Experiment [2] relates to Str. pneumoniae 6302. The experiment can be described thus: MIC, Agar (Mueller Hinton) Dilution Method. To be noted: Streptococcus pneumoniae, Gram Positive and Others. It counts as cell-based. An outline of the steps:
as §1

[3] abbreviates: E. coli HMS1, Gram Negative, read-out: MIC.

The source of these data is patent EP0597303A2, “Cephalosporin derivatives” (priority 1992, dated 1994).

In general, MIC refers to the lowest concentration found to suppress growth.

Structures are written as SMILES. Where a name gives a salt, the structure may show the parent alone. Read-outs that look alike come from different tables or passages of the source.

Take `N#CCC(=O)N[C@@H]1C(=O)N2C(C(=O)O)=C(COC(=O)N[C@H]3CCN(c4c(F)cc5c(=O)c(C(=O)O)cn(C6CC6)c5c4F)C3)CS[C@H]12` [Formula Iba, [6R-[3(S^*), 6 alpha, 7 beta]]-3-[[[[[1-(3-Carboxy-1-cyclopropyl-6,8-difluoro-1,4-dihydro-4-oxo-7-quinolinyl-3-pyrrolidinyl]-amino]carbonyl]oxy]methyl]-7-[(cyanoacetyl)amino]-8-oxo-5-thia 1-azabicyclo[4.2.0]oct-2-ene-2-carboxylic acid monosodium salt]: the MIC in experiment [1] (setting [3]) was ≤ 0.0156 µg/mL; in experiment [2] it was 0.0625 µg/mL.
As to `N#CCC(=O)N[C@@H]1C(=O)N2C(C(=O)O)=C(COC(=O)N[C@@H]3CCN(c4c(F)cc5c(=O)c(C(=O)O)cn(C6CC6)c5c4F)C3)CS[C@H]12` [Formula Ibb, [6R-[3(R^*), 6 alpha, 7 beta]]-3-[[[[[1-(3-Carboxy-1-cyclopropyl-6,8-difluoro-1,4-dihydro-4-oxo-7-quinolinyl-3-pyrrolidinyi]amino]carbonyl]oxy]methyL]-7-[(cyanoacetyl)amino]-8-oxo-5-thia-1-azabicyclo[4.2.0]oct-2-ene-2-carboxylic acid monosodium salt], the figures for the MIC in experiment [1] (HMS1) and in experiment [2] were 0.0313 µg/mL and 0.0625 µg/mL, respectively.
In experiment [1] (HMS1), `N#CCC(=O)N[C@@H]1C(=O)N2C(C(=O)O)=C(COC(=O)NC3CCN(c4c(F)cc5c(=O)c(C(=O)O)cn(C6CC6)c5c4F)C3)CS[C@H]12` (stereo partly drawn) [Formula Ib, [6R,7R]-3-[[[[[1-(3-Carboxy-1-cyclopropyl-6,8-difluoro-1,4-dihydro-4-oxo-7-quinolinyl-3-[R,S]-pyrrolidinyl]-amino]carbonyl]oxy]methyl]-7-[(cyanoacetyl)amino]-8-oxo-5-thia-1-azabicyclo[4.2.0]oct-2-ene-2-carboxyiic acid monosodium salt] showed an MIC of 0.0313 µg/mL.
Regarding `O=C(Cc1cccs1)N[C@@H]1C(=O)N2C(C(=O)O)=C(COC(=O)N3CCN(c4c(F)cc5c(=O)c(C(=O)O)cn(C6CC6)c5c4F)CC3)CS[C@H]12` [Formula Ia, [6R,7R]-3-[[[[4-(3-Carboxy-1-cyclopropyl-6,8-difluoro-1,4-dihydro-4-oxo-7-quinolinyl)-1-piperazinyl]carbonyl]-oxy]-methyl]-8-oxo-7-[(2-thienylacetyl)amino]-5-thia-1-azabicyclo-[4.2.0]oct-2-ene-2-carboxylic acid], the MIC in experiment [1] (setting [3]) was ≤ 0.0156 µg/mL.
